Legend:
human recombinant HDAC1 = target: T1, human recombinant HDAC1 (Homo sapiens, UniProt Q13547); test: HDAC1 enzyme activity inhibition (HDAC Fluorimetric Drug Discovery Kit); assay type: biochemical; settings: human recombinant HDAC1; IC50 calculated with GraphPad Prism; read-out: HDAC1
T1 construct: purchased Enzo Life Science, Inc. BML-SE456
Method: (§1) An experiment was conducted to identify the selectivity of the compound represented by formula I of the present invention to HDAC6 through an experiment on HDAC1 and HDAC6 enzyme activity inhibition.
(§2) A 5-fold dilution of the compound was divided into a 96-well plate, after which […] of the enzyme and 10 μM of the substrate were inserted into each well and subjected to reaction at 30° C. for 60 minutes, such that Fluor de Lys® Developer II (BML-KI176) was inserted thereinto and subjected to reaction for 30 minutes and finished.

human recombinant HDAC6 = target: T2, human recombinant HDAC6 (Homo sapiens, UniProt Q9UBN7); test: HDAC6 enzyme activity inhibition (HDAC Fluorimetric Drug Discovery Kit); assay type: biochemical; settings: for HDAC6 selectivity (fold): HDAC1 IC50 / HDAC6 IC50; for IC50: human recombinant HDAC6, IC50 calculated with GraphPad Prism
T2 construct: purchased Calbiochem Inc. 382180
T2 sequence (Q9UBN7 1-1215): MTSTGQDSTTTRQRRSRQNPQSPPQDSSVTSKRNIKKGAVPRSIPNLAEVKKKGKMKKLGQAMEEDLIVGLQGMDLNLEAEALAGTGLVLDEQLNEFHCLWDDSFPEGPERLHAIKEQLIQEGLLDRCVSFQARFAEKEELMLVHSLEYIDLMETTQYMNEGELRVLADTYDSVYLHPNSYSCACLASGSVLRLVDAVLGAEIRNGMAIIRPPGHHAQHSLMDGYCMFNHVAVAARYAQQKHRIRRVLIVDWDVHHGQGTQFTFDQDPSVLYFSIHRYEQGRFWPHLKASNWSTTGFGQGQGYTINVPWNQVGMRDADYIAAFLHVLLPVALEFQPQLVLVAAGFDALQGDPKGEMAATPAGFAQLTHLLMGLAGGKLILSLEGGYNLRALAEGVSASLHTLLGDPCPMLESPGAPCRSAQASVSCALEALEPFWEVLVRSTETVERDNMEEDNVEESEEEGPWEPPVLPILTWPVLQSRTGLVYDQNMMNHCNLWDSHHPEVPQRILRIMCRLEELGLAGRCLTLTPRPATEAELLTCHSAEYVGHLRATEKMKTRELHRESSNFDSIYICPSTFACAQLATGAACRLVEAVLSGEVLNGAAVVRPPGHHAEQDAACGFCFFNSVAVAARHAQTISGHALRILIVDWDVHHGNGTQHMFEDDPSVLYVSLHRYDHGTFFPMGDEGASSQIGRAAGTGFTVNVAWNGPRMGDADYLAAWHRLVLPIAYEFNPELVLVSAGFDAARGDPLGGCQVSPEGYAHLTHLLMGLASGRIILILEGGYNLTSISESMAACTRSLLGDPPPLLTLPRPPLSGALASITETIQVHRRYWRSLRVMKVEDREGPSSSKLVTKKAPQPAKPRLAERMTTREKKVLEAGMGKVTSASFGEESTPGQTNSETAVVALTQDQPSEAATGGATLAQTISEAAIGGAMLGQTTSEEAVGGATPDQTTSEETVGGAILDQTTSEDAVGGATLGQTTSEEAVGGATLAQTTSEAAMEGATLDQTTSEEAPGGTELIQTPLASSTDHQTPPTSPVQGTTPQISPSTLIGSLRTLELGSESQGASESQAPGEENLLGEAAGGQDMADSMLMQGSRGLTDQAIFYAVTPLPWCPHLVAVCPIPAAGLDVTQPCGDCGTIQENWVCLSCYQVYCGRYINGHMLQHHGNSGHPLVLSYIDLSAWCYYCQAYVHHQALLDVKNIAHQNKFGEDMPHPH
Method: as §1, §2

T1 sequence (Q13547 whole entry): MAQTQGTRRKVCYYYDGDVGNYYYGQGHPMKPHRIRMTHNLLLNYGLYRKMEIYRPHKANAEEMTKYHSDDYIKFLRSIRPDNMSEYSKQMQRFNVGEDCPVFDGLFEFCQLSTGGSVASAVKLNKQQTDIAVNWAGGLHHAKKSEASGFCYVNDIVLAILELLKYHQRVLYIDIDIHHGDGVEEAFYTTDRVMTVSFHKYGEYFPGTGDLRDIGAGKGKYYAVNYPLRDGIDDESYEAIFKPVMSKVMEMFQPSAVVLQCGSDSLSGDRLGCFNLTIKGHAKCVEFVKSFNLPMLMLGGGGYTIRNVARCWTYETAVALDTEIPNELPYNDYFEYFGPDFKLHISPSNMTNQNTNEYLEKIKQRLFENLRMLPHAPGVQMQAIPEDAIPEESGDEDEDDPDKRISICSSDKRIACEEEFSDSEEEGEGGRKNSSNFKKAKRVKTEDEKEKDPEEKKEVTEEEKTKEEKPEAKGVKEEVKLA

| Structure (SMILES) | IC50 (human recombinant HDAC1) [µM] | HDAC6 selectivity (fold) (human recombinant HDAC6) | IC50 (human recombinant HDAC6) [µM] |
| --- | --- | --- | --- |
| FC(F)c1nnc(-c2ccc(Cn3cc(-c4ccccc4)nn3)cc2)o1 [Compound 3657, 2-(difluoromethyl)-5-(4-((4-phenyl-1H-1,2,3-triazol-1-yl)methyl)phenyl)-1,3,4-oxadiazole] | > 50 | 527 | 0.0948 |
| O=C(O)c1cccc(-c2cn(Cc3ccc(-c4nnc(C(F)F)o4)cc3)nn2)c1 [Compound 3659, 3-(1-(4-(5-(difluoromethyl)-1,3,4-oxadiazol-2-yl)benzyl)-1H-1,2,3-triazol-4-yl)benzoic acid] | > 50 | 122 | 0.409 |
| O=C(O)c1cccc(-c2cn(Cc3ccc(-c4nnc(C(F)F)o4)cc3F)nn2)c1 [Compound 3660, 3-(1-(4-(5-(difluoromethyl)-1,3,4-oxadiazol-2-yl)-2-fluorobenzyl)-1H-1,2,3-triazol-4-yl)benzoic acid] | > 50 | 175 | 0.285 |
| Fc1ccc(-c2cn(Cc3ccc(-c4nnc(C(F)F)o4)cc3F)nn2)cc1F [Compound 3662, 2-(difluoromethyl)-5-(4-((4-(3,4-difluorophenyl)-1H-1,2,3-triazol-1-yl)methyl)-3-fluorophenyl)-1,3,4-oxadiazole] | > 50 | 289 | 0.173 |
| FC(F)c1nnc(-c2ccc(Cn3cc(-c4cc(C(F)(F)F)cc(C(F)(F)F)c4)nn3)cc2)o1 [Compound 3695, 2-(4-((4-(3,5-bis(trifluoromethyl)phenyl)-1H-1,2,3-triazol-1-yl)methyl)phenyl)-5-(difluoromethyl)-1,3,4-oxadiazole] | > 50 | 42 | 1.19 |
| Fc1cc(-c2nnc(C(F)F)o2)ccc1Cn1cc(-c2cc(C(F)(F)F)cc(C(F)(F)F)c2)nn1 [Compound 3696, 2-(4-((4-(3,5-bis(trifluoromethyl)phenyl)-1H-1,2,3-triazol-1-yl)methyl)-3-fluorophenyl)-5-(difluoromethyl)-1,3,4-oxadiazole] | > 50 | 52 | 0.945 |
| CC(C)(C)OC(=O)Nc1cccc(-c2cn(Cc3ccc(-c4nnc(C(F)F)o4)cc3F)nn2)c1 [Compound 3697, Tert-butyl (3-(1-(4-(5-(difluoromethyl)-1,3,4-oxadiazol-2-yl)-2-fluorobenzyl)-1H-1,2,3-triazol-4-yl)phenyl)carbamate] | > 50 | 1101 | 0.0454 |
| CC(C)(C)OC(=O)Nc1cccc(-c2cn(Cc3ccc(-c4nnc(C(F)F)o4)cc3)nn2)c1 [Compound 3698, Tert-butyl (3-(1-(4-(5-(difluoromethyl)-1,3,4-oxadiazol-2-yl)benzyl)-1H-1,2,3-triazol-4-yl)phenyl)carbamate] | > 50 | 1096 | 0.0456 |
| O=C(O)c1ccc(-c2cn(Cc3ccc(-c4nnc(C(F)F)o4)cc3)nn2)cc1 [Compound 3731, 4-(1-(4-(5-(difluoromethyl)-1,3,4-oxadiazol-2-yl)benzyl)-1H-1,2,3-triazol-4-yl)benzoic acid] | > 50 | 29 | 1.72 |
| O=C(O)c1ccc(-c2cn(Cc3ccc(-c4nnc(C(F)F)o4)cc3F)nn2)cc1 [Compound 3732, 4-(1-(4-(5-(difluoromethyl)-1,3,4-oxadiazol-2-yl)-2-fluorobenzyl)-1H-1,2,3-triazol-4-yl)benzoic acid] | > 50 | 74 | 0.672 |
| Cc1ccc(-c2cn(Cc3ccc(-c4nnc(C(F)F)o4)cc3F)nn2)cc1 [Compound 3733, 2-(difluoromethyl)-5-(3-fluoro-4-((4-(p-tolyl)-1H-1,2,3-triazol-1-yl)methyl)phenyl)-1,3,4-oxadiazole] | > 50 | 215 | 0.233 |
| CC(C)(C)OC(=O)N1CCC(c2cn(Cc3ccc(-c4nnc(C(F)F)o4)cc3F)nn2)C1 (stereo not drawn) [Compound 3734, Tert-butyl 3-(1-(4-(5-(difluoromethyl)-1,3,4-oxadiazol-2-yl)-2-fluorobenzyl)-1H-1,2,3-triazol-4-yl)pyrrolidin-1-carboxylate] | > 50 | 500 | 0.244 |
| CC(C)(C)OC(=O)N1CCC(c2cn(Cc3ccc(-c4nnc(C(F)F)o4)cc3F)nn2)CC1 [Compound 3735, Tert-butyl 4-(1-(4-(5-(difluoromethyl)-1,3,4-oxadiazol-2-yl)-2-fluorobenzyl)-1H-1,2,3-triazol-4-yl)piperidin-1-carboxylate] | > 50 | 320 | 0.156 |
| Fc1ccc(-c2cn(Cc3ccc(-c4nnc(C(F)F)o4)cn3)nn2)cc1F [Compound 3737, 2-(difluoromethyl)-5-(6-((4-(3,4-difluorophenyl)-1H-1,2,3-triazol-1-yl)methyl)pyridin-3-yl)-1,3,4-oxadiazole] | > 50 | 1043 | 0.0479 |
| O=C(O)c1cccc(-c2cn(Cc3ccc(-c4nnc(C(F)F)o4)cn3)nn2)c1 [Compound 3739] | > 50 | 782 | 0.0639 |
| CC(C)(C)OC(=O)Nc1cccc(-c2cn(Cc3ccc(-c4nnc(C(F)F)o4)cn3)nn2)c1 [Compound 3741, Tert-butyl (3-(1-((5-(5-(difluoromethyl)-1,3,4-oxadiazol-2-yl)pyridin-2-yl)methyl)-1H-1,2,3-triazol-4-yl)phenyl)carbamate] | > 50 | 1754 | 0.0285 |
| CN(C)c1cccc(-c2cn(Cc3ccc(-c4nnc(C(F)F)o4)cc3F)nn2)c1 [Compound 3774, 3-(1-(4-(5-(difluoromethyl)-1,3,4-oxadiazol-2-yl)-2-fluorobenzyl)-1H-1,2,3-triazol-4-yl)-N,N-dimethylaniline] | > 50 | 412 | 0.121 |
| CC(C)(C)OC(=O)N1CCC(c2cn(Cc3ccc(-c4nnc(C(F)F)o4)cn3)nn2)CC1 [Compound 3805, tert-butyl 4-(1-((5-(5-(difluoromethyl)-1,3,4-oxadiazol-2-yl)pyridin-2-yl)methyl)-1H-1,2,3-triazol-4-yl)piperidin-1-carboxylate] | > 50 | 844 | 0.0592 |
| CN1CCC(c2cn(Cc3ccc(-c4nnc(C(F)F)o4)cn3)nn2)CC1 [Compound 3806, 2-(difluoromethyl)-5-(6-((4-(1-methylpiperidin-4-yl)-1H-1,2,3-triazol-1-yl)methyl)pyridin-3-yl)-1,3,4-oxadiazole] | > 50 | 134 | 0.372 |
| CCN1CCC(c2cn(Cc3ccc(-c4nnc(C(F)F)o4)cn3)nn2)CC1 [Compound 3807, 2-(difluoromethyl)-5-(6-((4-(1-ethylpiperidin-4-yl)-1H-1,2,3-triazol-1-yl)methyl)pyridin-3-yl)-1,3,4-oxadiazole] | > 50 | 166 | 0.301 |
| CC(C)N1CCC(c2cn(Cc3ccc(-c4nnc(C(F)F)o4)cn3)nn2)CC1 [Compound 3808, 2-(difluoromethyl)-5-(6-((4-(1-isopropylpiperidin-4-yl)-1H-1,2,3-triazol-1-yl)methyl)pyridin-3-yl)-1,3,4-oxadiazole] | > 50 | 143 | 0.348 |
| FC(F)c1nnc(-c2ccc(Cn3cc(C4CCN(C5COC5)CC4)nn3)nc2)o1 [Compound 3809, 2-(difluoromethyl)-5-(6-((4-(1-(oxetan-3-yl)piperidin-4-yl)-1H-1,2,3-triazol-1-yl)methyl)pyridin-3-yl)-1,3,4-oxadiazole] | > 50 | 253 | 0.198 |
